# Reference: US20090311217A1, “3-SUBSTITUTED-1H-INDOLE COMPOUNDS, THEIR USE AS MTOR KINASE AND PI3 KINASE INHIBITORS, AND THEIR SYNTHESES” (priority 2008, published 2009)
# How the values were obtained:
# Type in all cases: biochemical
# human TOR = target: T1, human TOR (Homo sapiens, UniProt P42345); assay: mTOR enzyme assay (DELFIA, His6-S6K substrate); details: read-out: mTOR Kinase Avg. IC50
# T1 construct: FLAG
# PI3K-gamma = PI3K-gamma (Homo sapiens, UniProt P48736); assay: PI3K-gamma fluorescence polarization assay; details: PI3Kγ Avg. IC50
# Sequence of PI3K-gamma (P48736 whole entry, species assumed, the tested form may be a part, canonical isoform): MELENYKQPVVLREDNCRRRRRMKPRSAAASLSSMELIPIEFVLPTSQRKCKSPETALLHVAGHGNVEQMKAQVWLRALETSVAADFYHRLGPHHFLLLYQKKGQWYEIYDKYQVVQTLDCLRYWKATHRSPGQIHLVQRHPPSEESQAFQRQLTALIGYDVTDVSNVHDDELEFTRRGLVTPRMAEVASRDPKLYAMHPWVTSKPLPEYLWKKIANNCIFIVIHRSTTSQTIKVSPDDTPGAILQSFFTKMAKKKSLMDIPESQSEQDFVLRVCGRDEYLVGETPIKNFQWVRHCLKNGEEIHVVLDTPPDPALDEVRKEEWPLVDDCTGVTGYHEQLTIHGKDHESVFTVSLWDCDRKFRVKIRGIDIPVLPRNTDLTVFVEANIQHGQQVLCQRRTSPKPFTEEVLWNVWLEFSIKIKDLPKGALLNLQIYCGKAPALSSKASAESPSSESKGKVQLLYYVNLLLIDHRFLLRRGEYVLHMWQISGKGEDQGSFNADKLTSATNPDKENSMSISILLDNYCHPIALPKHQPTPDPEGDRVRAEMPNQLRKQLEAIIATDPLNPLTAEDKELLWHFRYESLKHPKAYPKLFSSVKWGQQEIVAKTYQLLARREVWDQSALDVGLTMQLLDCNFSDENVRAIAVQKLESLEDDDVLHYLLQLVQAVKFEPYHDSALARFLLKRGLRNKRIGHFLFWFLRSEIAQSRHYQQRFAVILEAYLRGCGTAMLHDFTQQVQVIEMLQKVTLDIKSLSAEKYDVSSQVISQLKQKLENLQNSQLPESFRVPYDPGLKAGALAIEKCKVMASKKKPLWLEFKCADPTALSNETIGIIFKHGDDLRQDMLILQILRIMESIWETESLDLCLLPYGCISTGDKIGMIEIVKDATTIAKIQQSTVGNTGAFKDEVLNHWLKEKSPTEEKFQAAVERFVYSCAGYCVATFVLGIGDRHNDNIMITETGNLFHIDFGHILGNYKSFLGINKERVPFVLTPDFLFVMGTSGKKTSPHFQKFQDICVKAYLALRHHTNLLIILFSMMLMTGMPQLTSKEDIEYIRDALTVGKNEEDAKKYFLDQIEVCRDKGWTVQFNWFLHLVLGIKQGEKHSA
# Summary of the method: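 Each isoform (5 ng) phosphorylated 2.5 μM diC8-PI(4,5)P2 at 25 μM ATP for one hour at 25° C in the presence of inhibitor. Reactions were then stopped with EDTA, and product was detected by fluorescence polarization using a GST-GRP1 PH domain and a BODIPY-TMR-labelled IP4 tracer.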
# PI3K-alpha = PI3K-alpha (Homo sapiens, UniProt P42336); assay: PI3K-alpha fluorescence polarization assay; details: read-out: PI3Kα Avg. IC50
# Sequence of PI3K-alpha (P42336 whole entry, species assumed): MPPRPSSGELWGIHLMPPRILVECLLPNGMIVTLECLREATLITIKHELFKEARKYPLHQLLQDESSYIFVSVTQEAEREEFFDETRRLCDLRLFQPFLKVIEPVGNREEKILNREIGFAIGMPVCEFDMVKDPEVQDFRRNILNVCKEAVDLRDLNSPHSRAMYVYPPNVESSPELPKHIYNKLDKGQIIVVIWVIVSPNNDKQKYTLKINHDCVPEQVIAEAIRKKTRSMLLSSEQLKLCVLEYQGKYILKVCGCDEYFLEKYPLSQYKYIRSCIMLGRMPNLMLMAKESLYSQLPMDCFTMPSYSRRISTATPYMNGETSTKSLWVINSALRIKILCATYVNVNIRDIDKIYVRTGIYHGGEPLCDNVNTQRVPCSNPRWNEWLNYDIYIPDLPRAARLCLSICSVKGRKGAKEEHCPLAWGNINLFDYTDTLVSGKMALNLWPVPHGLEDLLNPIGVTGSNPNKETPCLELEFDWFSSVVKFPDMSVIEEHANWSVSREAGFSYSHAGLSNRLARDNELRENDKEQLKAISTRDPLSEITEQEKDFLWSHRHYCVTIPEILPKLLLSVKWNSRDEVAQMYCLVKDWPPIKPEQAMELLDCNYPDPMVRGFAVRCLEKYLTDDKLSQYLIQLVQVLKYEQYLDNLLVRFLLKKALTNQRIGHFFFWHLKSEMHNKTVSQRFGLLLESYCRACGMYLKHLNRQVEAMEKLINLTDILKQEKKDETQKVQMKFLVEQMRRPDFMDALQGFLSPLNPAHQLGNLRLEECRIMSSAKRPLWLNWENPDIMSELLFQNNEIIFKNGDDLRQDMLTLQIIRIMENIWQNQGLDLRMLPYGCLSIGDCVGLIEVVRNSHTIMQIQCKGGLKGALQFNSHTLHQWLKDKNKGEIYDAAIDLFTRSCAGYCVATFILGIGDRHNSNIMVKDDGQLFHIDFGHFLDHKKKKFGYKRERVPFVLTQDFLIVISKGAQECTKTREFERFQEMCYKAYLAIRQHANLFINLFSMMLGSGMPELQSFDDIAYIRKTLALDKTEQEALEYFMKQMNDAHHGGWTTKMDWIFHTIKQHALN
# Sequence of PI3K-alpha (P27986 whole entry partner, species assumed): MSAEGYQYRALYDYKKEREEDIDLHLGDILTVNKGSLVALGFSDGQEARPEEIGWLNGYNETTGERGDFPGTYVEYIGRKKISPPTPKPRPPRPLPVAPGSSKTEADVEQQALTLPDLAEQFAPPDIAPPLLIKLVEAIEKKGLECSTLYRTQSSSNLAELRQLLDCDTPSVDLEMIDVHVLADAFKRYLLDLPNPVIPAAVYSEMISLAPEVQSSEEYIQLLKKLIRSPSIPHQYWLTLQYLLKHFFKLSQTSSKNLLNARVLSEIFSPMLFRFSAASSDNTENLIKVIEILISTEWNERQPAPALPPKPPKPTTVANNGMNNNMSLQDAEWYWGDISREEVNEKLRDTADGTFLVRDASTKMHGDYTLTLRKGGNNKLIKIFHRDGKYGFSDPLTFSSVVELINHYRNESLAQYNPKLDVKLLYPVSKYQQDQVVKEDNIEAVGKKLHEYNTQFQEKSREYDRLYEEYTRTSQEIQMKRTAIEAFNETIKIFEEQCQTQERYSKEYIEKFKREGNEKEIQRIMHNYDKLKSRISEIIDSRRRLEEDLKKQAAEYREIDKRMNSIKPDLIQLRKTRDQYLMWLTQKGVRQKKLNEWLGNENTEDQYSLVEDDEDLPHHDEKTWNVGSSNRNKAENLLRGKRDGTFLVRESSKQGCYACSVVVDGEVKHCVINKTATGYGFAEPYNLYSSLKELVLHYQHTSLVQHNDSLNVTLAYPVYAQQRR
SMILES,IC50 (human TOR) [nM],IC50 (PI3K-gamma) [nM],IC50 (PI3K-alpha) [nM]
"CNC(=O)Nc1ccc2c(c1)C(=O)/C(=C/c1c(N3CCN(C)CC3)n(CCN3CCN(C)CC3)c3ccc(OC)cc13)O2 [Compound 636, 1-[(2Z)-2-({5-methoxy-2-(4-methylpiperazin-1-yl)-1-[2-(4-methylpiperazin-1-yl)ethyl]-1H-indol-3-yl}methylene)-3-oxo-2,3-dihydro-1-benzofuran-5-yl]-3-methylurea]",165,1010,4
"CNC(=O)Nc1ccc2c(c1)C(=O)/C(=C/c1c(-c3c(OC)cccc3OC)[nH]c3ccc(OC)cc13)O2 [Compound 637, 1-[(2Z)-2-{[2-(2,6-dimethoxyphenyl)-5-methoxy-1H-indol-3-yl]methylene}-3-oxo-2,3-dihydro-1-benzofuran-5-yl]-3-methylurea]",35,18.5,2.2
"COc1ccc2c(c1)c(/C=C1\Oc3ccc(NC(=O)Nc4cccnc4)cc3C1=O)c(C1CCCC1)n2CCN1CCN(C)CC1 [Compound 638, 1-[(2Z)-2-({2-cyclopentyl-5-methoxy-1-[2-(4-methylpiperazin-1-yl)ethyl]-1H-indol-3-yl}methylene)-3-oxo-2,3-dihydro-1-benzofuran-5-yl]-3-pyridin-3-ylurea]",8,214,3
"CNC(=O)Nc1cc2c(cc1C)O/C(=C\c1c(C)n(CCN3CCN(C)CC3)c3ccc(OC)cc13)C2=O [Compound 640, 1-[(2Z)-2-({5-methoxy-2-methyl-1-[2-(4-methylpiperazin-1-yl)ethyl]-1H-indol-3-yl}methylene)-6-methyl-3-oxo-2,3-dihydro-1-benzofuran-5-yl]-3-methylurea]",1450,6040,488
"CNC(=O)Nc1ccc2c(c1)C(=O)/C(=C/c1c(C3CCCCC3)[nH]c3ccc(OC)cc13)O2 [Compound 641, 1-{(2Z)-2-[(2-cyclohexyl-5-methoxy-1H-indol-3-yl)methylene]-3-oxo-2,3-dihydro-1-benzofuran-5-yl}-3-methylurea]",10,8,1.6
"CCn1cc(/C=C2\Oc3ccc(NC(=O)Nc4ccc(C(=O)N5CCN(C)CC5)cc4)cc3C2=O)c2cc(OC)ccc21 [Compound 642, 1-{(2Z)-2-[(1-ethyl-5-methoxy-1H-indol-3-yl)methylene]-3-oxo-2,3-dihydro-1-benzofuran-5-yl}-3-{4-[(4-methylpiperazin-1-yl)carbonyl]phenyl}urea]",2600,8,0.95
"COc1ccc2[nH]cc(/C=C3\Oc4ccc(NC(=O)Nc5ccc(C(=O)N6CCN(C)CC6)cc5)cc4C3=O)c2c1 [Compound 643, 1-{(2Z)-2-[(5-methoxy-1H-indol-3-yl)methylene]-3-oxo-2,3-dihydro-1-benzofuran-5-yl}-3-{4-[(4-methylpiperazin-1-yl)carbonyl]phenyl}urea]",> 4000,4,0.9
"COc1ccc2[nH]c(C3CCCCC3)c(/C=C3\Oc4ccc(NC(=O)Nc5ccc(C(=O)N6CCN(C)CC6)cc5)cc4C3=O)c2c1 [Compound 644, 1-{(2Z)-2-[(2-cyclohexyl-5-methoxy-1H-indol-3-yl)methylene]-3-oxo-2,3-dihydro-1-benzofuran-5-yl}-3-{4-[(4-methylpiperazin-1-yl)carbonyl]phenyl}urea]",33,2.5,0.3
"CCn1c(C2CCCCC2)c(/C=C2\Oc3ccc(NC(=O)Nc4ccc(C(=O)N5CCN(C)CC5)cc4)cc3C2=O)c2cc(OC)ccc21 [Compound 645, 1-{(2Z)-2-[(2-cyclohexyl-1-ethyl-5-methoxy-1H-indol-3-yl)methylene]-3-oxo-2,3-dihydro-1-benzofuran-5-yl}-3-{4-[(4-methylpiperazin-1-yl)carbonyl]phenyl}urea]",185,55,1.8
"CNC(=O)Nc1ccc2c(c1)C(=O)/C(=C/c1c(-c3c(C)nn(C)c3C)n(CCN3CCN(C)CC3)c3ccc(OC)cc13)O2 [Compound 646, 1-[(2Z)-2-({5-methoxy-1-[2-(4-methylpiperazin-1-yl)ethyl]-2-(1,3,5-trimethyl-1H-pyrazol-4-yl)-1H-indol-3-yl}methylene)-3-oxo-2,3-dihydro-1-benzofuran-5-yl]-3-methylurea]",13,68,2.5
"CNC(=S)Nc1ccc2c(c1)C(=O)/C(=C/c1c(C)n(CCN3CCN(C)CC3)c3ccc(OC)cc13)O2 [Compound 647, 1-[(2Z)-2-({5-methoxy-2-methyl-1-[2-(4-methylpiperazin-1-yl)ethyl]-1H-indol-3-yl}methylene)-3-oxo-2,3-dihydro-1-benzofuran-5-yl]-3-methylthiourea]",1260,4850,10
"CNC(=O)Nc1ccc2c(c1)C(=O)/C(=C/c1c(-c3c(C)nn(C)c3C)n(CCNCCO)c3ccc(OC)cc13)O2 [Compound 648, 1-[(2Z)-2-{[1-{2-[(2-hydroxyethyl)amino]ethyl}-5-methoxy-2-(1,3,5-trimethyl-1H-pyrazol-4-yl)-1H-indol-3-yl]methylene}-3-oxo-2,3-dihydro-1-benzofuran-5-yl]-3-methylurea]",9,37,2.95
"CNC(=O)Nc1ccc2c(c1)C(=O)/C(=C/c1c(-c3c(C)nn(C)c3C)n(CCN3CCNCC3)c3ccc(OC)cc13)O2 [Compound 656, 1-[(2Z)-2-{[5-methoxy-1-(2-piperazin-1-ylethyl)-2-(1,3,5-trimethyl-1H-pyrazol-4-yl)-1H-indol-3-yl]methylene}-3-oxo-2,3-dihydro-1-benzofuran-5-yl]-3-methylurea]",35,52,0.95

# The remaining lines, values ahead:
IC50 (human TOR) [nM],IC50 (PI3K-gamma) [nM],IC50 (PI3K-alpha) [nM],SMILES
31,19,0.4,"COc1ccc2c(c1)c(/C=C1\Oc3ccc(NC(=O)Nc4ccc(C(=O)N(C)CCN(C)C)cc4)cc3C1=O)c(C)n2CCN1CCN(C)CC1 [Compound 649, N-[2-(dimethylamino)ethyl]-4-({[(2Z)-2-({5-methoxy-2-methyl-1-[2-(4-methylpiperazin-1-yl)ethyl]-1H-indol-3-yl}methylene)-3-oxo-2,3-dihydro-1-benzofuran-5-yl]carbamoyl}amino)-N-methylbenzamide]"
31,3,0.4,"CCn1c(C)c(/C=C2\Oc3ccc(NC(=O)Nc4ccc(C(=O)N5CCC(N(C)C)CC5)cc4)cc3C2=O)c2cc(OC)ccc21 [Compound 650, 1-(4-{[4-(dimethylamino)piperidin-1-yl]carbonyl}phenyl)-3-{(2Z)-2-[(1-ethyl-5-methoxy-2-methyl-1H-indol-3-yl)methylene]-3-oxo-2,3-dihydro-1-benzofuran-5-yl}urea]"
783,19.7,0.9,"CCn1c(C)c(/C=C2\Oc3ccc(NC(=O)Nc4ccc(C(=O)C5CCN(C)CC5)cc4)cc3C2=O)c2cc(OC)ccc21 [Compound 651, 1-{(2Z)-2-[(1-ethyl-5-methoxy-2-methyl-1H-indol-3-yl)methylene]-3-oxo-2,3-dihydro-1-benzofuran-5-yl}-3-{4-[(1-methylpiperidin-4-yl)carbonyl]phenyl}urea]"
135,18,3.5,"CCn1c(C)c(/C=C2\Oc3ccc(NC(=O)Nc4ccc(N(C)CCN(C)C)cc4)cc3C2=O)c2cc(OC)ccc21 [Compound 652, 1-(4-{[2-(dimethylamino)ethyl](methyl)amino}phenyl)-3-{(2Z)-2-[(1-ethyl-5-methoxy-2-methyl-1H-indol-3-yl)methylene]-3-oxo-2,3-dihydro-1-benzofuran-5-yl}urea]"
125,21,4,"CCn1c(C)c(/C=C2\Oc3ccc(NC(=O)Nc4ccc(N(C)CCCN(C)C)cc4)cc3C2=O)c2cc(OC)ccc21 [Compound 653, 1-(4-{[3-(dimethylamino)propyl](methyl)amino}phenyl)-3-{(2Z)-2-[(1-ethyl-5-methoxy-2-methyl-1H-indol-3-yl)methylene]-3-oxo-2,3-dihydro-1-benzofuran-5-yl}urea]"
88,7.5,1.5,"CCn1c(C)c(/C=C2\Oc3ccc(NC(=O)Nc4ccc(OCCCN(C)C)cc4)cc3C2=O)c2cc(OC)ccc21 [Compound 654, 1-{4-[3-(dimethylamino)propoxy]phenyl}-3-{(2Z)-2-[(1-ethyl-5-methoxy-2-methyl-1H-indol-3-yl)methylene]-3-oxo-2,3-dihydro-1-benzofuran-5-yl}urea]"
175,7.5,0.6,"CCn1cc(/C=C2\Oc3ccc(NC(=O)Nc4ccc(C(=O)N(C)CCN(C)C)cc4)cc3C2=O)c2cc(OC)ccc21 [Compound 655, N-[2-(dimethylamino)ethyl]-4-[({(2Z)-2-[(1-ethyl-5-methoxy-1H-indol-3-yl)methylene]-3-oxo-2,3-dihydro-1-benzofuran-5-yl}carbamoyl)amino]-N-methylbenzamide]"
84,3.5,0.4,"CCn1c(C)c(/C=C2\Oc3ccc(NC(=O)Nc4ccc(C(=O)N(C)CCCN(C)C)cc4)cc3C2=O)c2cc(OC)ccc21 [Compound 657, N-[3-(dimethylamino)propyl]-4-[({(2Z)-2-[(1-ethyl-5-methoxy-2-methyl-1H-indol-3-yl)methylene]-3-oxo-2,3-dihydro-1-benzofuran-5-yl}carbamoyl)amino]-N-methylbenzamide]"
2450,2.15,0.3,"COc1ccc2c(c1)c(/C=C1\Oc3ccc(NC(=O)Nc4ccc(C(=O)N5CCN(C)CC5)cc4)cc3C1=O)c(C)n2C [Compound 658, 1-{(2Z)-2-[(5-methoxy-1,2-dimethyl-1H-indol-3-yl)methylidene]-3-oxo-2,3-dihydro-1-benzofuran-5-yl}-3-{4-[(4-methylpiperazin-1-yl)carbonyl]phenyl}urea]"
